In brackets after ≈: the same amount, converted by molar mass.
What was measured:
Type in all cases: cell-based
[1] = tested on: Escherichia coli ATCC 25922; test: MIC, binary serial dilution in 96-well plates; settings: ATCC25922; Escherichia coli ATCC 25922, 24 h at 37 °C
Description: (§1) The antimicrobial activity of all compounds was assessed on Gram-positive bacteria (Staphylococcus aureus ATCC 25923), Gram-negative bacteria (Escherichia coli ATCC 25922, Pseudomonas aeruginosa ATCC 27853), and fungi (Candida parapsilosis ATCC 22019) using quantitative binary serial dilution method in 96-well plates. The negative control was represented by wells with culture medium, while positive control was the microbial strain in broth. Briefly, binary serial dilutions of the compounds performed in 100 μL of broth were seeded with microbial inoculum of 10^6 colony forming units (CFU)/mL and incubated for 24 h at 37 °C. […] Due to the fact that the obtained compounds were colored, after the incubation of the 96-well plates, from each well, 10 µL were seeded on agar plates (Plate Count Agar) to determine the inhibitory concentration. The same value of the inhibitory concentration was obtained in repeated experiments.
(§2) The antibacterial effect of the azulene moiety introduced in the chalcone structure was investigated against Gram-positive (Staphylococcus aureus ATCC 25923) and Gram-negative (Escherichia coli ATCC 25922, Pseudomonas aeruginosa ATCC 27853) bacteria, while the antifungal effect was tested against Candida parapsilosis ATCC 22019. To our knowledge, the antibacterial activity of azulene-containing chalcone compounds has not been reported previously; moreover, this is the first investigation of the biological properties of azulene-containing chalcones in general. The results expressed in terms of minimum inhibitory concentration (MIC) were determined by in vitro screening of the antimicrobial properties using the broth microdilution method and are summarized in Table 5.

[2] = tested on: Pseudomonas aeruginosa ATCC 27853; test: MIC, binary serial dilution in 96-well plates; settings: ATCC27853; Pseudomonas aeruginosa ATCC 27853, 24 h at 37 °C
Description: as §1, §2

[3] = tested on: Staphylococcus aureus ATCC 25923; test: MIC, binary serial dilution in 96-well plates; settings: for MIC: ATCC25923, Staphylococcus aureus ATCC 25923, 24 h at 37 °C; for Aexp: Aexp = 0.1 + log (k/MIC), k = 1.250, compounds synthesized herein
Description: as §1, §2

[4] = tested on: Candida parapsilosis ATCC 22019; test: MIC (antifungal), binary serial dilution in 96-well plates; settings: Lodderomyces parapsilosis, ATCC22019; Candida parapsilosis ATCC 22019, 24 h at 37 °C
Description: as §1, §2
We further tested the azulene-containing chalcone compounds for antifungal activity against Candida parapsilosis ATCC 22019.

[5] = tested on: Candida parapsilosis; test: Antibiofilm activity (crystal violet, A490); settings: Lodderomyces parapsilosis, biofilm, read-out: MBEC
Description: (§3) The effect of the chalcones on the biofilm formation was evaluated after the determination of the MICs. Briefly, the plates were emptied, washed to remove the nonadherent cells, fixed with methanol, and stained with crystal violet. The antibiofilm activity was determined after adding 33% acetic acid solution by measuring the absorbance at 490 nm, and the results are listed in Table 6.
(§4) The azulene-chalcone derivatives were tested for their ability to affect biofilm formation since 80% of the world’s microbial biomass is found in the biofilm state. The most efficient compound was again chalcone 6 with MBEC of 0.156–0.625 mg/mL (Table 6).

[6] = tested on: Escherichia coli; test: Antibiofilm activity (crystal violet, A490); settings: biofilm, read-out: MBEC
Description: as §3, §4

[7] = tested on: Pseudomonas aeruginosa; test: Antibiofilm activity (crystal violet, A490); settings: biofilm, read-out: MBEC
Description: as §3, §4

[8] = tested on: Staphylococcus aureus; test: Antibiofilm activity (crystal violet, A490); settings: biofilm, read-out: MBEC
Description: as §3, §4

[9] = tested on: biofilm formation; test: Antibiofilm activity, summary over the tested strains; settings: range over the tested strains (Table 6)
Description: as §3, §4

[10] = Cell viability assay (CellTiter Glo); settings: human; HEp-2 cells, 48 h, CellTiter Glo; read-out: IC50 (50% cytotoxic concentration)
Description: (§5) To assess the toxicity of the azulene-containing chalcones, the adherent cell line HEp-2 (American Cell Type Collection [ATCC] CCL-23^TM) was used.
(§6) In order to estimate the cytotoxicity of the compounds, HEp-2 cells (American Cell Type Collection (ATCC) CCL-23) were exposed to the azulene-containing chalcones at concentrations of 200, 100, 50, and 25 μg/mL and evaluated using CellTiter Glo kit (Promega, Madison, WI, USA) assay. The results presented in Figure 3 are expressed as viability percentages versus control.

[11] = tested on: HEp-2 cells; test: Cell viability assay (CellTiter Glo); settings: 25-200 μg/mL
Description: as §5, §6

[12] = tested on: caspase 8; test: Gene expression quantification (qPCR); settings: HEp-2, 100 µg/mL, 24 h
Description: (§7) The mechanism of azulene-containing chalcone toxicity was assessed by gene expression evaluation. HEp-2 cells were seeded in 6-well plates at a concentration of 3 × 10^5 cells/wells in DMEM:F12 supplemented with 10% FBS. The cells were treated with azulene-containing chalcone at a concentration of 100 µg/mL. After 24 h, the cells were harvested and centrifuged, and the pellet was subjected to total RNA extraction using Trizol reagent (Sigma, St. Louis, MO, USA). The cDNA was produced using 2 µg total RNA and High Capacity Reverse Transcription Kit (Thermo Fisher Scientific, Chelmsford, MA, USA). Fifty nanograms of cDNA was subjected to PCR reaction using Maxima SYBR Green/ROX qPCR Master Mix (Thermo Fisher Scientific, Chelmsford, MA, USA) and Origene primer pairs: caspase 3 (CAT#: HP207674) caspase 7 (CAT#: HP233752), caspase 8 (CAT#: HP234494), caspase 9 (CAT#: HP205155), caspase 10 (CAT#: HP228052). For NOX-4 and NOS2, the following primers were used: NOX 4 forward 5′-[…]-3 and reverse 5′-[…]-3′ and NOS2 forward 5′-[…]-3′ and reverse 5′-[…]-3′. Amplification was completed using StepOne Real-Time PCR System (Thermo Fisher Scientific, Chelmsford, MA, USA). The relative changes in the levels of mRNA expression were quantified by using the 2^−ΔΔCT method.
(§8) Production of procaspase 8 mRNA was inhibited by 7, 9, and 10, with an important role in extrinsic apoptosis induction remaining for caspase 10. Cellular stress induces intrinsic apoptosis by caspase 9 activation that stimulates the caspase cascade, culminating in activation of executioner caspases 3 and 7 [42]. The mRNA expression of caspase 9 was activated following the treatment with 100 µg/mL of compounds 1–8 but inhibited by 9 and 10.

[13] = tested on: NOX4; test: Gene expression quantification (qPCR); settings: HEp-2, 100 µg/mL, 24 h
Description: as §7
(§9) One of our approaches consisted of the analysis of NOS2 and NOX4 gene expression (Figure 6). […]

[14] = tested on: HEp-2 cells; test: Cell cycle analysis (propidium iodide, flow cytometry)
Description: For cell cycle analysis, a suspension of 7.5 × 10^4 HEp-2 cells was seeded for 24 h in a 1 cm^2 well in DMEM:F12 containing 10% fetal bovine serum. After recovery, the cells were treated with 50 µg/mL or 100 µg/mL azulene-containing chalcone, and 24 h later, the cells were harvested, fixed in cold ethanol overnight, and stained with RNase A/propidium iodide at a concentration of 1 mg/mL to 100 µg/mL. The events were recorded using the Beckman Coulter flow cytometer and analyzed using FlowJo 7.2.5 software.
The cytotoxicity data were also confirmed by cell cycle analysis. Among the tested compounds, chalcone 10 induced an increase in the G2/M phase starting from a concentration of 50 µg/mL (Supplementary Material Figure S2), the effect increasing slightly with the concentration of the tested compound. The increase in the G2/M phase was also observed in the case of compound 9, but at a higher concentration (100 µg/mL), but this effect was lower (Figure 4).

[15] = tested on: caspase 3; test: Gene expression quantification (qPCR); settings: HEp-2, 100 µg/mL, 24 h
Description: as §7
(§10) We observed that the expression of both executioner caspases, caspase 3 (Casp 3), and caspase 7 (Casp 7), was activated by azulene (Figure 5, right). The production of procaspase 3 and 7 mRNA in the case of compounds 9 and 10 was quite reduced, probably correlated with the decreased number of cells.

[16] = tested on: caspase 7; test: Gene expression quantification (qPCR); settings: HEp-2, 100 µg/mL, 24 h
Description: as §7, §10

[17] = tested on: caspase 9; test: Gene expression quantification (qPCR); settings: HEp-2, 100 µg/mL, 24 h
Description: as §7, §8

[18] = tested on: NOS2; test: Gene expression quantification (qPCR); settings: HEp-2, 100 µg/mL, 24 h
Description: as §7, §9

Row | SMILES | MIC [1] [µg/mL] | MIC [2] [µg/mL] | MIC [3] [µg/mL] | Aexp [3] | MIC [4] [µg/mL] | minimal effective concentration [5] [µg/mL] | minimal effective concentration [6] [µg/mL] | minimal effective concentration [7] [µg/mL] | minimal effective concentration [8] [µg/mL] | MBEC [9] [mg/mL] | IC50 at 48 h [10] [µg/mL] | cytotoxicity [11] | procaspase 8 mRNA production [12] | NOX4 activation (expression) [13] | effect on G2/M phase ([14]; HEp-2, starting from 50 µg/mL) | procaspase 3 mRNA expression [15] | procaspase 7 mRNA expression [16] | mRNA expression of caspase 9 [17] | effect on G2/M phase ([14]; HEp-2, 100 µg/mL) | NOS2 expression [18]
1 | O=C(/C=C/c1ccc2cccccc1-2)c1ccc2cccccc1-2 [Compound 6, (E)-1,3-Di(azulen-1-yl)prop-2-en-1-one] | 625 (≈ 2030 µM) | 625 (≈ 2030 µM) | 625 (≈ 2030 µM) | 0.401 | 156 (≈ 506 µM) | 156 | 625 | 625 | 625 | 0.156 to 0.625 | 78.6 (≈ 255 µM) | low toxicity | – | – | – | – | – | – | – | –
2 | Nc1ccc(C(=O)/C=C/c2ccc3cccccc2-3)cc1 [Compound 3, (E)-1-(4-Aminophenyl)-3-(azulen-1-yl)prop-2-en-1-one] | 625 (≈ 2290 µM) | 625 (≈ 2290 µM) | 1250 (≈ 4570 µM) | 0.100 | 312 (≈ 1140 µM) | 625 | 625 | 1250 | 2500 | – | 114 (≈ 415 µM) | – | – | – | – | – | – | – | – | –
3 | O=C(/C=C/c1ccc2cccccc1-2)c1ccc(O)cc1 [Compound 2, (E)-3-(Azulen-1-yl)-1-(4-hydroxyphenyl)prop-2-en-1-one] | 625 (≈ 2280 µM) | 625 (≈ 2280 µM) | 1250 (≈ 4560 µM) | 0.100 | 312 (≈ 1140 µM) | 312 | 625 | 625 | 1250 | – | 97.5 (≈ 355 µM) | – | – | – | – | – | – | – | – | –
4 | O=C(/C=C/c1cc(Br)c2cccccc1-2)c1ccc2cccccc1-2 [Compound 8, (E)-1-(Azulen-1-yl)-3-(3-bromoazulen-1-yl)prop-2-en-1-one] | 625 (≈ 1610 µM) | 625 (≈ 1610 µM) | 1250 (≈ 3230 µM) | 0.100 | 312 (≈ 806 µM) | 312 | 625 | 1250 | 1250 | – | 93.5 (≈ 242 µM) | – | – | – | – | – | – | – | – | –
5 | O=C(/C=C/c1cc(Cl)c2cccccc1-2)c1ccc2cccccc1-2 [Compound 7, (E)-1-(Azulen-1-yl)-3-(3-chloroazulen-1-yl)prop-2-en-1-one] | 625 (≈ 1820 µM) | 625 (≈ 1820 µM) | 625 (≈ 1820 µM) | 0.401 | 312 (≈ 910 µM) | 312 | 1250 | 625 | 625 | – | 42.9 (≈ 125 µM) | – | inhibited | minimal | – | – | – | – | – | –
6 | Cc1cc(C(=O)/C=C/c2ccc3cccccc2-3)c2cccccc1-2 [Compound 10, (E)-3-(Azulen-1-yl)-1-(3-methylazulen-1-yl)prop-2-en-1-one] | 625 (≈ 1940 µM) | 625 (≈ 1940 µM) | 1250 (≈ 3880 µM) | 0.100 | 312 (≈ 968 µM) | 312 | 625 | 625 | 1250 | – | 4.95 (≈ 15.4 µM) | most toxic | inhibited | – | increase | quite reduced | quite reduced | inhibited | – | –
7 | Cc1cc(/C=C/C(=O)c2ccc3cccccc2-3)c2cccccc1-2 [Compound 9, (E)-1-(Azulen-1-yl)-3-(3-methylazulen-1-yl)prop-2-en-1-one] | 625 (≈ 1940 µM) | 625 (≈ 1940 µM) | 1250 (≈ 3880 µM) | 0.100 | 312 (≈ 968 µM) | 312 | 625 | 625 | 625 | – | 52.5 (≈ 163 µM) | – | inhibited | – | – | quite reduced | quite reduced | inhibited | increase | reduced

Reference: publication PMC8911025, “Design, Synthesis, and Biological Evaluation of New Azulene-Containing Chalcones” (Materials, 2022)
